Source: patent US10548828B2, “Use of 3,6-anhydro-L-galactose for preventing dental caries” (Korea University Research and Business Foundation, priority 2015, dated 2020)

Key:
Streptococcus mutans [1] = test: Colony formation of Streptococcus mutans on solid minimal medium, single carbon source; format: cell-based, Streptococcus mutans ATCC 25175; conditions: 10 g/L as single carbon source, 30 h
Description: Strains used in the present experiment are Streptococcus mutans ATCC 25175, S. oralis, and S. sanguinis. Representatively, Streptococcus mutans ATCC 25175 was pre-cultured in a brain-heart infusion (BHI) medium for 12 hours, and was washed twice with a 2 mM potassium phosphate buffer, and then was subjected to main culture in a minimal medium prepared with reference to the previously reported document (Fujiwara et al (1978) Arch Oral Biol. 23, 601-602) at 37° C. and 180 rpm. The composition of the minimal medium includes, in 5 mL of a 50 mM Tris-HCl buffer (pH 7.4), 10 mg of L-glutamic acid, 1 mg of cysteine hydrochloride, 4.5 mg of L-leucine, 5 mg of ammonium chloride, 17.5 mg of potassium hydrogen phosphate, 7.5 mg of potassium dihydrogen phosphate, 21 mg of a carbonate, 6 mg of magnesium sulfate heptahydrate, 0.1 mg of manganese chloride tetrahydrate, 3 mg of sodium pyruvate, 5 μg of riboflavin, 2.5 μg of thiamine hydrochloride, 0.5 μg of biotin, 5 μg of nicotinic acid, 0.5 μg of p-aminobenzoic acid, 2.5 μg of calcium pantothenate, and 5 μg of pyridoxine hydrochloride. To verify an effect of inhibiting the growth of Streptococcus mutans under a single carbon source condition, Streptococcus mutans was cultured in a solid minimal medium and a liquid minimal medium that contained 10 g/L of each of 3,6-anhydro-L-galactose, glucose, and xylitol. […]

Streptococcus mutans [2] = test: Growth of Streptococcus mutans in liquid minimal medium, single carbon source (absorbance 600 nm); format: cell-based, Streptococcus mutans ATCC 25175; conditions: 10 g/L single carbon source, 20 h after entering a stationary phase
Description: Strains used in the present experiment are Streptococcus mutans ATCC 25175, S. oralis, and S. sanguinis. Representatively, Streptococcus mutans ATCC 25175 was pre-cultured in a brain-heart infusion (BHI) medium for 12 hours, and was washed twice with a 2 mM potassium phosphate buffer, and then was subjected to main culture in a minimal medium prepared with reference to the previously reported document (Fujiwara et al (1978) Arch Oral Biol. 23, 601-602) at 37° C. and 180 rpm. The composition of the minimal medium includes, in 5 mL of a 50 mM Tris-HCl buffer (pH 7.4), 10 mg of L-glutamic acid, 1 mg of cysteine hydrochloride, 4.5 mg of L-leucine, 5 mg of ammonium chloride, 17.5 mg of potassium hydrogen phosphate, 7.5 mg of potassium dihydrogen phosphate, 21 mg of a carbonate, 6 mg of magnesium sulfate heptahydrate, 0.1 mg of manganese chloride tetrahydrate, 3 mg of sodium pyruvate, 5 μg of riboflavin, 2.5 μg of thiamine hydrochloride, 0.5 μg of biotin, 5 μg of nicotinic acid, 0.5 μg of p-aminobenzoic acid, 2.5 μg of calcium pantothenate, and 5 μg of pyridoxine hydrochloride. […] The bacteria were main-cultured using the method of Example 5 for 35 h, and a degree of the cell growth was measured by measuring the absorbance of a culture at a wavelength of 600 nm every 5 h.

Streptococcus mutans [3] = test: Growth inhibition under mixed carbon source condition (10 g/L glucose), 96-well plate; format: cell-based, Streptococcus mutans ATCC 25175
Description: (§1) Strains used in the present experiment are Streptococcus mutans ATCC 25175, S. oralis, and S. sanguinis. Representatively, Streptococcus mutans ATCC 25175 was pre-cultured in a brain-heart infusion (BHI) medium for 12 hours, and was washed twice with a 2 mM potassium phosphate buffer, and then was subjected to main culture in a minimal medium prepared with reference to the previously reported document (Fujiwara et al (1978) Arch Oral Biol. 23, 601-602) at 37° C. and 180 rpm. […] Small amounts of Streptococcus mutans, S. oralis, and S. sanguinis were cultured, using the method of Example 5, in 200 μl of a liquid minimal medium containing 10 g/L of glucose and 3,6-anhydro-L-galactose or xylitol according to concentration in a 96-well plate, and growth inhibitory effects thereof were observed by measuring absorbance at a wavelength of 600 nm according to time. […]

S. sanguinis = test: as above; format: cell-based; conditions: 60 g/L added to 10 g/L glucose
Description: as §1

Streptococcus mutans [4] = test: Growth and acid production under mixed carbon source condition, 5 mL culture, absorbance and HPLC; format: cell-based, Streptococcus mutans ATCC 25175
Description: Strains used in the present experiment are Streptococcus mutans ATCC 25175, S. oralis, and S. sanguinis. Representatively, Streptococcus mutans ATCC 25175 was pre-cultured in a brain-heart infusion (BHI) medium for 12 hours, and was washed twice with a 2 mM potassium phosphate buffer, and then was subjected to main culture in a minimal medium prepared with reference to the previously reported document (Fujiwara et al (1978) Arch Oral Biol. 23, 601-602) at 37° C. and 180 rpm. The composition of the minimal medium includes, in 5 mL of a 50 mM Tris-HCl buffer (pH 7.4), 10 mg of L-glutamic acid, 1 mg of cysteine hydrochloride, 4.5 mg of L-leucine, 5 mg of ammonium chloride, 17.5 mg of potassium hydrogen phosphate, 7.5 mg of potassium dihydrogen phosphate, 21 mg of a carbonate, 6 mg of magnesium sulfate heptahydrate, 0.1 mg of manganese chloride tetrahydrate, 3 mg of sodium pyruvate, 5 μg of riboflavin, 2.5 μg of thiamine hydrochloride, 0.5 μg of biotin, 5 μg of nicotinic acid, 0.5 μg of p-aminobenzoic acid, 2.5 μg of calcium pantothenate, and 5 μg of pyridoxine hydrochloride. To verify an effect of 3,6-anhydro-L-galactose or xylitol on the growth of Streptococcus mutans and acid production, Streptococcus mutans bacteria were cultured, using the method of Example 5, in 5 mL of a liquid minimal medium containing 10 g/L of glucose and 0 g/L, 5 g/L or 10 g/L of 3,6-anhydro-L-galactose or 20 g/L or 40 g/L of xylitol for 35 h, and cell growth was measured using absorbance every 5 hours and concentrations of an extracellular substrate and acid production were measured by HPLC. A glucose only-added condition was set as a negative control, and a glucose- and xylitol-added condition was set as a positive control. A column used for analysis was Aminex HPX-87H, and 0.01 N of sulfuric acid as a mobile phase was flowed at a rate of 0.5 mL/min and 65° C.

S. mutans [5] = test: Inhibitory effects under sucrose, fructose or maltose conditions, 96-well plate; format: cell-based, Streptococcus mutans; conditions: for non-growth rate: 40 g/L added
Description: Strains used in the present experiment are Streptococcus mutans ATCC 25175, S. oralis, and S. sanguinis. Representatively, Streptococcus mutans ATCC 25175 was pre-cultured in a brain-heart infusion (BHI) medium for 12 hours, and was washed twice with a 2 mM potassium phosphate buffer, and then was subjected to main culture in a minimal medium prepared with reference to the previously reported document (Fujiwara et al (1978) Arch Oral Biol. 23, 601-602) at 37° C. and 180 rpm. The composition of the minimal medium includes, in 5 mL of a 50 mM Tris-HCl buffer (pH 7.4), 10 mg of L-glutamic acid, 1 mg of cysteine hydrochloride, 4.5 mg of L-leucine, 5 mg of ammonium chloride, 17.5 mg of potassium hydrogen phosphate, 7.5 mg of potassium dihydrogen phosphate, 21 mg of a carbonate, 6 mg of magnesium sulfate heptahydrate, 0.1 mg of manganese chloride tetrahydrate, 3 mg of sodium pyruvate, 5 μg of riboflavin, 2.5 μg of thiamine hydrochloride, 0.5 μg of biotin, 5 μg of nicotinic acid, 0.5 μg of p-aminobenzoic acid, 2.5 μg of calcium pantothenate, and 5 μg of pyridoxine hydrochloride. Under conditions of fermentable sugars other than glucose, for example, sucrose, fructose, and maltose, inhibitory effects of AHG and xylitol on S. mutans were investigated. An experiment was carried out in a 96-well plate containing 0 g/L to 10 g/L of AHG or 0 g/L to 40 g/L of xylitol in a specified minimal medium containing 10 g/L of each of sucrose, fructose, and maltose.

S. mutans [6] = conditions: background statement; cited from earlier work

Structure (SMILES): OC[C@@H](O)[C@H](O)[C@@H](O)CO [xylitol]
- formation of colonies compared to the glucose condition (Streptococcus mutans [1]): inhibited
- dry cell weight (DCW) of Streptococcus mutans (Streptococcus mutans [2]): 1.46 g/L
- growth of Streptococcus mutans, concentration dependence (Streptococcus mutans [3]; 0-60 g/L added to 10 g/L glucose): inhibited as the treated concentration of xylitol was increased
- growth of Streptococcus mutans (Streptococcus mutans [3]; 40 g/L added to 10 g/L glucose): considerable cell growth was observed
- inhibitory effect on S. sanguinis (S. sanguinis): strong inhibitory effect
- concentration of produced acetic acid (Streptococcus mutans [4]; 20 g/L in 10 g/L glucose): 0.55 g/L
- concentration of produced lactic acid (Streptococcus mutans [4]; 20 g/L in 10 g/L glucose): 3.67 g/L
- final dry cell weight (Streptococcus mutans [4]; 20 g/L in 10 g/L glucose): 1.42 g/L
- glucose consumed (Streptococcus mutans [4]; 20 g/L in 10 g/L glucose): 5.28 g/L
- non-growth rate (Streptococcus mutans [4]; 20 g/L in 10 g/L glucose): 0.087 h⁻¹
- concentration of consumed glucose (Streptococcus mutans [4]; 40 g/L in 10 g/L glucose): 5.42 g/L
- concentration of produced acetic acid (Streptococcus mutans [4]; 40 g/L in 10 g/L glucose): 0.55 g/L
- concentration of produced lactic acid (Streptococcus mutans [4]; 40 g/L in 10 g/L glucose): 3.67 g/L
- inhibition of growth of Streptococcus mutans and acid production (Streptococcus mutans [4]; 40 g/L in 10 g/L glucose): did not completely inhibit
- lag phase (Streptococcus mutans [4]; 40 g/L in 10 g/L glucose, compared with 20 g/L): longer
- use as a carbon source / fermentation by Streptococcus mutans (Streptococcus mutans [4]; in 10 g/L glucose): non-fermentation properties
- concentration of the added sugar during culture (Streptococcus mutans [4]; in 10 g/L glucose, 35 h culture): constantly maintained
- non-growth rate (S. mutans [5]; 10 g/L fructose): 0.085 h⁻¹
- non-growth rate (S. mutans [5]; 10 g/L maltose): 0.045 h⁻¹
- cell growth of S. mutans, concentration dependence (S. mutans [5]; 10 g/L sucrose, 0-40 g/L added): decreased as the concentration of xylitol was increased
- non-growth rate (S. mutans [5]; 10 g/L sucrose): 0.061 h⁻¹
- cell growth of S. mutans (S. mutans [5]; 10 g/L sucrose, 40 g/L added (maximum concentration)): did not completely inhibit
- concentration at which the growth of S. mutans can be inhibited (S. mutans [6]): ≥ 25 g/L
